Two molecules from US20070167353A1, “PRODRUG COMPOSITION” (priority 2003, published 2007) can be followed below.

Data set [1] addresses T1, biphenyl hydrolase-like enzyme (BPHL) (Homo sapiens, UniProt Q86WA6).
T1 sequence (Q86WA6 38-291): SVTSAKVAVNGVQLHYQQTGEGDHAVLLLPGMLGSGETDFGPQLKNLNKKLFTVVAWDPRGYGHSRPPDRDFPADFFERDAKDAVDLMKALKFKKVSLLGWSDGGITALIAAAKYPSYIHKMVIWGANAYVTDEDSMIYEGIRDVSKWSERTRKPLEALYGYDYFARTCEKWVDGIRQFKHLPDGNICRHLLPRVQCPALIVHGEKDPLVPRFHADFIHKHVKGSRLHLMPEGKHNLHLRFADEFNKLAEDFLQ
The data set is classed as biochemical.

Data set [2] is described as follows: in vitro. As to conditions: human, plasma.
In data set [3] the test system is HeLa cells. Conditions: control cultures not overexpressing hpept1, 50 micromolar, pH 6.0, 45 minutes.
For data set [4], the target named is T2, HPEPT1 (Homo sapiens, UniProt P46059).
T2 sequence (P46059 1-708): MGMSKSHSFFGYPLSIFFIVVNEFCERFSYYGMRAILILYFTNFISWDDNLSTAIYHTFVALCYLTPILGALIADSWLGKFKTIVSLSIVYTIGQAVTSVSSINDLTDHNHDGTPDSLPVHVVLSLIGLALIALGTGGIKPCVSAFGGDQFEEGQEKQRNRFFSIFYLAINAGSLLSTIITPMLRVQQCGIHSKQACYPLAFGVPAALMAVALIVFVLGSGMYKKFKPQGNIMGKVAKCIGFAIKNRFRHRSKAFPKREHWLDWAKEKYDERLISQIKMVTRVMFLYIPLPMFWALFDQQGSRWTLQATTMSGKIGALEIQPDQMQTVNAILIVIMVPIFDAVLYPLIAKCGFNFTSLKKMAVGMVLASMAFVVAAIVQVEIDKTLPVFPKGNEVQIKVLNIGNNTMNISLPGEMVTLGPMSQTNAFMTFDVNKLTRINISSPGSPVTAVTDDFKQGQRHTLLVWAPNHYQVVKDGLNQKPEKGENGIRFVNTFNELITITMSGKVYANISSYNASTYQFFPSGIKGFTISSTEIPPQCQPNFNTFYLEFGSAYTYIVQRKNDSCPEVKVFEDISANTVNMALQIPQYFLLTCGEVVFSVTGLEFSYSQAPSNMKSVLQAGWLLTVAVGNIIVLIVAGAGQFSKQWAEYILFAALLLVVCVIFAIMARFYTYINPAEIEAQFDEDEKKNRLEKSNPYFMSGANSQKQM
As to conditions: human, pH 6.

Data set [5] can be described thus: in vitro. Conditions: human, Caco-2.
The target of data set [6] is T2, HPEPT1. As to the kind of experiment: Inhibition of radiolabelled Gly-Sar uptake in DC5 cells overexpressing HPEPT1. The data set is classed as cell-based. More on the design: expressed in transfected cells; host or cells: HeLa cells overexpressing hPEPT1 (called 'HPEPT1 infected cells'). On the procedure:
Amino acid prodrugs are tested for their interaction with the dipeptide transporter, HPEPT1, using tissue culture cells that are engineered to overexpress HPEPT1. In this example, the cells that overexpress HPEPT1, termed DC5, are a human meduloblastoma cell line that is stably transfected with a eukaryotic expression vector encoding HPEPT1. […] DC5 cells are plated at a density of 12,000 cells/well in 96-well tissue culture plates and allowed to grow for 2 days. The cells are washed once with 200 microliters of uptake buffer and aspirated. The plates are cooled to 4° C. and 25 ul of uptake buffer containing 125 nanomoles Gly-Sar (at a specific activity of 1 microcurie/micromole) is added. The uptake buffer also contains the prodrugs to be tested at concentrations ranging from 10 micromolar to 20 millimolar. The assay is initiated by placing the plate in a shaking water bath at 37° C. and is terminated after 10 min by rapid washing with multiple changes of 4° C. phosphate buffered saline (PBS). The radioactive Gly-Sar peptide that is transported by the hpept1 is extracted from the cell layer with 200 ul of a one to one mixture of methanol and water and is counted in 4 ml of CytoScint ES™ scintillation cocktail (ICN). The data are plotted as % Gly-Sar uptake of control (no competitive substrate) versus the competitive substrate concentration. […] Typically, values that are below 10 mM indicate that the drug interacts with transporter.

The target in data set [7] is T3, human dipeptide transporter, hPept1 (Homo sapiens, UniProt P46059).
T3 sequence (P46059 1-708): T2 sequence (P46059 1-708)
Conditions: human, pH 6.

Data set [8] is described as follows: Hydrolysis of gemcitabine prodrugs in phosphate buffer pH 7.4.
In data set [9] the test system is HeLa cells. Conditions: 1 mM prodrug, pH 6.0, 45 minutes.
A short description of data set [10]: in vitro. As to conditions: human, Caco-2, pH 7.4.
The nature of data set [11]: physchem. Conditions: buffer, pH 7.4.
Data set [12] can be described thus: physchem. As to conditions: buffer, pH 7.4. This is another data set of the same source.

The structures appear in SMILES notation. Where two headings read alike, the source gives them in different places.

On to `CC(C)[C@H](N)C(=O)OCCOCn1cnc2c(=O)[nH]c(N)nc21` [Valacyclovir], for which, in data set [1], the “% of Control (VACV)” value amounted to 100.0%. Besides, the half-life worked out at 5.2 ± 0.41 h in “in vitro [2]”; 0.545 ± 0.0117 h in “in vitro [5]”; 17.1 ± 0.19 h in [8]; 0.462 ± 0.01 h in “in vitro [10]”; 16.5 ± 0.24 h in the data set “physchem [11]”. Also, in the data set on HeLa cells [3], the “Uptake Control” value is recorded as 0.59 ± 0.06 nmole/mg/45 min. Also, the “Uptake (hPepT1)” value at HPEPT1 [4] is 2.51 ± 0.28 nmole/mg/45 min. In addition, the hPepT1/Control at HPEPT1 [4] came out at 4.25; in [7], 19.0. At HPEPT1 [6], this molecule yielded an IC50 of 423 µM. Besides, in [7], the HeLa/hPEPT1 uptake is listed as 221.2 ± 8.1. For the same molecule, in the data set on HeLa cells [9], the HeLa control uptake is 11.6 ± 0.5 nmol/mg/45 min.
With `CC(C)[C@H](N)C(=O)OCC(CO)OCn1cnc2c(=O)nc(N)[nH]c21` (some centres unmarked) [Valganciclovir], the half-life in the data set “in vitro [2]” came to 5.05 ± 0.3 h; in “physchem [12]” it was 16.5 ± 0.24 h; in “in vitro [10]”, 0.545 ± 0.0117 h. In addition, the IC50 at HPEPT1 [6] (inhibition of Gly-Sar uptake, DC5 cells overexpressing HPEPT1, 10 min, 37° C., read-out: DC5 IC50) came to 5230 µM.

The term half-life denotes how long it takes for the measured level to halve. As usually defined, the IC50 is the concentration at which inhibition is half-maximal.
